Assay results taken from patent publication US5572996A, “In vivo pharmacokinetics of photosensitive drugs and method” (PDT Systems, Inc., priority 1996, dated 1996).
Where two headings read alike, the source gives them in different places.

Assays:
[1] = tested on: skin cancers; experiment: Photodynamic therapeutic response to red light in a human subject; assay type: in vivo; details: 0.4 mg/kg SnET2, human subject
Procedure: (§1) FIG. 1 presents data from an actual human subject injected with SnET2 for the treatment of a number of skin cancers. A number of normal i.e. control sites, and tumor sites were measured prior to the SnET2 injection, (0.4 mg/kg) and at various times post injection. […] In summary, it is clear from the data provided that the method employing the measurement of the intensity of the exogenous chromophore fluorescence to the autofluorescence of a tissue provide a more accurate means for measuring the pharmacokinetics of an exogenous fluorescing chromophore in vivo. The finding is novel and to the inventor's knowledge has not been taught or acknowledged by others either in a patent or publication. Though the method was discovered and developed during the performance of work associated with photodynamic diagnosis and therapy, the utilization of the present method extends to other types of phototherapy. Any application requiring the in vivo monitoring of rate of change of concentration of a fluorescence chromophore in a tissue could use the present method. For example the in vivo pharmacokinetics of fluorescence labeled monoclonal antibodies for diagnostic or therapeutic application, and certain fluorescent antibiotics such as tetracycline, detection of highly proliferating atherosclerosis, among others. […]

[2] = set-up: species or system Spraig Dawley Rats; details: rat, in vivo
Procedure: (§2) Twenty-four hours prior to measurement the animals were injected either with a control solution, (carrier vehicle), or various concentrations of the exogenous chromophore, tin ethyl etiopurpurin, (SnET2). SnET2 is a synthetic chlorophyll analogue used in photodynamic light therapy (PDT) that has a relatively weak fluorescence emission, (Quantum yield of 0.01), an emission peak at 670 nm, and a maximum absorption/excitation at 440 nm. At measurement time the animals where anesthetized and then surgically opened to allow measurement of the fluorescence in various tissues. The measurement system used had the following characteristics:
(a) A single fiber was used to deliver excitation light;
(b) Excitation light was derived from a HeCd laser at 442 nm, […] total power delivered to the tissue;
(c) The excitation light was delivered to the target tissue by means of a fiber optic. Fluorescent light emitted by both exogenous and endogenous chromophores in the target tissue was conducted back to the measuring instrument by means of a bundle of smaller optical fibers surrounding the fiber delivering excitation light to the target tissue. Some of these fiber where directed to one PMT (photomultiplier tube) detector filtered for a 570 nm endogenous autofluorescence while the others (12 fibers) were coupled to a PMT filtered at 670 nm for detecting the SnET2 emission;
(d) Autoranging of the gains of the PMTs over five decades;
(e) A display of the 570 (Autofluorescence), 670 (SnET2),signals and the ratio of the two;
(f) An internal reference standard for setting the gain of each PMT prior to each use;
(g) Computer data storage.
The system operates by a foot paddle or a panel button. Activating either one causes the 23 system to take a reading in 1.6 seconds and store it in the display and computer memory. Prior to each use the illuminating probe excitation output is set to 1 mw but this is not necessary due to the ratioing concept.
(§3) A small correction can be made for the endogenous autofluorescence by subtracting the control values from the drug containing tissue to give a NET RATIO. This method permits compensation for background tissue difference while permitting accurate and sensitive measurement of the exogenous chromophore presence in the tissue. Chemical extraction of the SnET2 from the tissue allows correlation of the in-vivo drug concentration to the Ratio signal as shown in Table 3 below. Such a correlation would not be accurate or easily done with out using the Ratio concept.

[3] = tested on: skin cancers; experiment: In vivo fluorescence kinetics in a human subject with skin cancers (tumor and normal sites); details: 0.4 mg/kg SnET2, human subject
Procedure: as §1

[4] = set-up: species or system Spraig Dawley Rats; details: rat, in vivo, 24 h
Procedure: as §2, §3

Net Ratio, kidney ([2]; 1 mg/kg): 1.73 ± 0.42
Net Ratio, liver ([2]; 1 mg/kg): 17.8 ± 2.15
Net Ratio, kidney ([2]; 2 mg/kg): 2.48 ± 0.14
Net Ratio, liver ([2]; 2 mg/kg): 30.0 ± 5.5
Net Ratio, kidney ([2]; 4 mg/kg): 4.24 ± 0.90
Net Ratio, liver ([2]; 4 mg/kg): 50.1 ± 12.8
SnET2 fluorescence at 670 nm with site and time (FIG. 2) ([3]; unratioed signal): greatly varies with site and time
Extraction (tissue drug concentration), kidney ([4]; 1 mg/kg): 1.87 ± 0.14 µg/g
Extraction (tissue drug concentration), liver ([4]; 1 mg/kg): 13.2 ± 0.91 µg/g
Extraction (tissue drug concentration), kidney ([4]; 2 mg/kg): 3.56 ± 0.11 µg/g
Extraction (tissue drug concentration), liver ([4]; 2 mg/kg): 27.2 ± 2.5 µg/g
Extraction (tissue drug concentration), kidney ([4]; 4 mg/kg): 5.49 ± 0.54 µg/g
Extraction (tissue drug concentration), liver ([4]; 4 mg/kg): 59.2 ± 8.9 µg/g
SMILES: CCOC(=O)C1=Cc2c3nc(cc4nc(cc5[n-]c(cc6[n-]c2c(C)c6CC)c(C)c5CC)C(C)=C4CC)[C@@H](C)[C@]13CC.[Cl-].[Cl-].[Sn] (racemic) [SnET2, tin ethyl etiopurpurin]
response to red light exposure [1]: gave a response correlating to the magnitude of the ratio signal
drug uptake in tumors versus control/normal sites (Net Ratio, FIG. 3) [3]: the tumors take up the drug significantly more than the control/normal sites
